Laboratory results: ChEMBL document CHEMBL3232974, “In vivo optimization of 2,3-diaminopyrazine Rho Kinase inhibitors for the treatment of glaucoma” (Bioorg Med Chem Lett, 2014)

Columns and labels:
[1] = Aqueous solubility of the compound; format: physicochemical; settings: buffer
[2] = tested on: Cynomolgus monkey; assay: Antiglaucoma activity in cynomolgus monkey assessed as reduction in intraocular pressure at MTD administered as topical ocular dose after 6 hrs relative to control; format: functional, Macaca fascicularis, Eye; parameters: scale not given: the % may be the effect or the level left
[3] = target: Rho-associated protein kinase 1 (Homo sapiens, UniProt Q13464); assay: Inhibition of truncated ROCK-1 (unknown origin)
Rho-associated protein kinase 1, sequence (Q13464 whole entry, the tested form may be a part): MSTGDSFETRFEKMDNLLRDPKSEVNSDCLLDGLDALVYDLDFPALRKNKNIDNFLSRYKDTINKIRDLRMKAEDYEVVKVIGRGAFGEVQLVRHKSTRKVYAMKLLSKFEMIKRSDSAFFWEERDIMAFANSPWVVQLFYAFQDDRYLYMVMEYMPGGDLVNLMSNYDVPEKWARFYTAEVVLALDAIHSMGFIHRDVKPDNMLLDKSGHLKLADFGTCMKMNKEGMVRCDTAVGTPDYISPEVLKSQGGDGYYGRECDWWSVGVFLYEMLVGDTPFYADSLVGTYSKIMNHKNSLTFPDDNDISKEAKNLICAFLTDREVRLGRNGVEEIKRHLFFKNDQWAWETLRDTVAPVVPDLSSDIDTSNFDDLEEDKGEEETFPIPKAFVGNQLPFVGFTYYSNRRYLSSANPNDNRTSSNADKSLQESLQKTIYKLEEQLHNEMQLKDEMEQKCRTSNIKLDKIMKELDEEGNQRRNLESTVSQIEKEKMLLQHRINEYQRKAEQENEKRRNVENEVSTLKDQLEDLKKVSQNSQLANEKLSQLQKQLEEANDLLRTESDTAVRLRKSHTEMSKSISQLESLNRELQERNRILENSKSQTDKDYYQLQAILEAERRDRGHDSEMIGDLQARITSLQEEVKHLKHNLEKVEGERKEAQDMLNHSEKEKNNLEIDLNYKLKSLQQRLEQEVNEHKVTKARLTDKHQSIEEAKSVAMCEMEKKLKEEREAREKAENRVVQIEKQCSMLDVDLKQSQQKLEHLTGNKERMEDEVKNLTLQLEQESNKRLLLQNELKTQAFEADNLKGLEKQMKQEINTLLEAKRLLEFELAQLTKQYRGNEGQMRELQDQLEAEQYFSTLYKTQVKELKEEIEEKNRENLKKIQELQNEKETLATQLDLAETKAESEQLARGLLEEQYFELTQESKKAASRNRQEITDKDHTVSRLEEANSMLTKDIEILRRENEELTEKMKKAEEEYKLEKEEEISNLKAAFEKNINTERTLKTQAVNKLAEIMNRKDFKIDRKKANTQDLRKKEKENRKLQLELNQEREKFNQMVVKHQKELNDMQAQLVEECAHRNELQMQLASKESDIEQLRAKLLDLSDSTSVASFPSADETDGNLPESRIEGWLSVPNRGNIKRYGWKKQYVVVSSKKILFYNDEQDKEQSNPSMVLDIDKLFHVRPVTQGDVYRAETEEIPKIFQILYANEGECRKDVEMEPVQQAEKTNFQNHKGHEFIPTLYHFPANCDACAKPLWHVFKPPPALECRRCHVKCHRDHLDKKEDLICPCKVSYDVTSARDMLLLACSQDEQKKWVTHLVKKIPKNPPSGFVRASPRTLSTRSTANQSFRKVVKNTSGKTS

[4] = species on record: Cavia porcellus; assay: Antiglaucoma activity in guinea pig assessed as hyperemia at 300 ug after 2 hrs relative to control; format: functional
[5] = tested on: Cynomolgus monkey; assay: Toxicity in cynomolgus monkey compound administered as topical ocular dose after 6 hrs; format: organism-based, Macaca fascicularis, Eye; settings: in vivo, topical_or_ocular
[6] = target: Rho-associated protein kinase 2 (Homo sapiens, UniProt O75116); assay: Inhibition of truncated ROCK-2 (unknown origin) after 60 mins by IMAP assay
Rho-associated protein kinase 2, sequence (O75116 whole entry, the tested form may be a part): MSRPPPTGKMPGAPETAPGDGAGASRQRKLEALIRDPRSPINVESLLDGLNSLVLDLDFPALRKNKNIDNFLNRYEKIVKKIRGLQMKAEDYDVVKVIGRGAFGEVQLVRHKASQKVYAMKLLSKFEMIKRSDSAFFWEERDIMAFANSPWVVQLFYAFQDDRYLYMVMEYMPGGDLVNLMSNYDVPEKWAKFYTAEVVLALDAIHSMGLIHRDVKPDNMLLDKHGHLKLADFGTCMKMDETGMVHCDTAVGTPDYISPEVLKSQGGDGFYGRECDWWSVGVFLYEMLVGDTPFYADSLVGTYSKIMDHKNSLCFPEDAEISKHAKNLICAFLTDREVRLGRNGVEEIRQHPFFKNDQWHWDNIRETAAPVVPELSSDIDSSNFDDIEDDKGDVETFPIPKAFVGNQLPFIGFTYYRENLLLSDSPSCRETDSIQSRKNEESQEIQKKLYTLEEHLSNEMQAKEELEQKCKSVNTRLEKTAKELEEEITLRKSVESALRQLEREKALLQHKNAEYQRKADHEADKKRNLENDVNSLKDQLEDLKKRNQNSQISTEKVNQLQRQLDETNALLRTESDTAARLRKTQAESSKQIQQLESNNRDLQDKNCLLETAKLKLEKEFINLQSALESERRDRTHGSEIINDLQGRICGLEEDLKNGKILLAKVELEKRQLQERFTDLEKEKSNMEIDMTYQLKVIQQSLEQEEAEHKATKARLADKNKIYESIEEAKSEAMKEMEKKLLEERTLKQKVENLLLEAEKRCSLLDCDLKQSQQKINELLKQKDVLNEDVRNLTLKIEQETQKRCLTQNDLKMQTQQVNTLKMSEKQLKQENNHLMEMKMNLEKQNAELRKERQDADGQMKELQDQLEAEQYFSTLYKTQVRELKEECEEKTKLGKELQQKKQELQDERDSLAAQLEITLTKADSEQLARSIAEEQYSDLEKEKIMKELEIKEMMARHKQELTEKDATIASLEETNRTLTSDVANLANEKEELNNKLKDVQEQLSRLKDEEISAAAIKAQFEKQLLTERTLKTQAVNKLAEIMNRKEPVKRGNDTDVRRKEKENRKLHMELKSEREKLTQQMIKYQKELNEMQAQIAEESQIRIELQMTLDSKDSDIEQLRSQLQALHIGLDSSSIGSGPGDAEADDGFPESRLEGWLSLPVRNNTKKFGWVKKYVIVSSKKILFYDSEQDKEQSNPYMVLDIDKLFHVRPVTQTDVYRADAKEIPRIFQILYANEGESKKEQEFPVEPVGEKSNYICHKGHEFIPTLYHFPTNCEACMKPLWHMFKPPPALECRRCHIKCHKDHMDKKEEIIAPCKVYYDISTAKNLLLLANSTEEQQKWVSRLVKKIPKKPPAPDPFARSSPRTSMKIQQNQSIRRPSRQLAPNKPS

[7] = Drug level in Dutch-Belted rabbit aqueous humor at 150 ug administered as topical ocular instillation after 30 mins by RP-HPLC analysis; format: ADME, Oryctolagus cuniculus, Aqueous humor of eyeball; settings: topical or ocular, read-out: Drug uptake
[8] = species on record: Cavia porcellus; assay: Antiglaucoma activity in guinea pig assessed as hyperemia at 30 ug after 2 hrs relative to control; format: functional
[9] = Drug level in Dutch-Belted rabbit aqueous humor at 100 ug administered as topical ocular instillation after 30 mins by RP-HPLC analysis; format: ADME, Oryctolagus cuniculus, Aqueous humor of eyeball; settings: topical or ocular, read-out: Drug uptake
[10] = tested on: Homo sapiens; assay: Antiglaucoma activity in human assessed as reduction in intraocular pressure at 0.25% solution administered as topical ocular dose after 21 days relative to control; format: functional, Eye; parameters: scale not given: the % may be the effect or the level left
[11] = Drug level in Dutch-Belted rabbit aqueous humor at 300 ug administered as topical ocular instillation after 30 mins by RP-HPLC analysis; format: ADME, Oryctolagus cuniculus, Aqueous humor of eyeball; settings: topical or ocular, read-out: Drug uptake
[12] = species on record: Cavia porcellus; assay: Antiglaucoma activity in guinea pig assessed as hyperemia at 100 ug after 2 hrs relative to control; format: functional
[13] = tested on: Homo sapiens; assay: Antiglaucoma activity in human assessed as reduction in intraocular pressure at 0.1% solution administered as topical ocular instillation relative to control; format: functional, Eye; parameters: scale not given: the % may be the effect or the level left
[14] = species on record: Cavia porcellus; assay: Antiglaucoma activity in guinea pig assessed as lowest dose required for producing 100% hyperemia after 2 hrs; format: functional

For CN(C)CC(O)CN1CCN(c2nc(-c3ccncc3)cnc2N2CCCC2)CC1 (configuration not stated), the solubility [1] was “soluble”, the Activity [2] was 14% and the IC50 [3] was 288 nM. The Activity [4] was 58%, the MTD [5] was 1% and the IC50 [6] was 76 nM. The concentration at 0.5 h [7] was 950 nM.
In the case of CC(=O)NCCCN1CCN(c2nc(-c3ccncc3)cnc2N2CCCC2)CC1, the solubility [1] is reported as “soluble”, the Activity [2] is reported as 24% and the IC50 [3] is reported as 346 nM. The Activity [8] was 66%, the MTD [5] was 0.5% and the IC50 [6] was 75 nM. The concentration at 0.5 h [7] was 8300 nM.
In the case of Cc1n[nH]c2ccc(-c3cncc(N4CCCNCC4)n3)cc12, the Activity [2] is reported as 31%, the IC50 [3] is reported as 140 nM and the MTD [5] is reported as 0.33%. It also gave an IC50 [6] of 36 nM and a concentration at 0.5 h [9] of 200 nM.
CNC(CC1CCCCC1)C(=O)Nc1ccc2cnccc2c1 (configuration not stated) gave an Activity [10] of 20%.
In the case of OCCN1CCN(c2nc(-c3ccncc3)cnc2N2CCCC2)CC1, the solubility [1] is reported as “soluble”, the concentration at 0.5 h [11] is reported as 3.8 µM and the Activity [2] is reported as 26%. For the same compound, the IC50 [3] was 570 nM, the MTD [5] was 1% and the Activity [12] was 33%. The IC50 [6] was 39 nM.
For CC(=O)NCC(O)CN1CCN(c2nc(-c3ccncc3)cnc2N2CCCC2)CC1 (configuration not stated), the solubility [1] was “soluble”, the Activity [2] was 9% and the IC50 [3] was 350 nM. It also gave an MTD [5] of 0.33%, an Activity [12] of 42% and an IC50 [6] of 68 nM. For the same compound, the concentration at 0.5 h [9] was 4800 nM.
With C[C@@H](N)c1ccc(C(=O)Nc2ccnc3[nH]ccc23)cc1 [Y-39983] the solubility [1] was “soluble”, the concentration at 0.5 h [11] was 4.4 µM and the Activity [13] was 22%. The Activity [2] was less than 15%, the MTD [5] was 0.1% and the Activity [14] was 3 µg.
For c1nc(N2CCCC2)c(N2CCCNCC2)nc1-c1cc2cn[nH]c2cn1, the Activity [2] was 26%, the IC50 [3] was 203 nM and the MTD [5] was 0.33%. The Activity [14] was 30 µg, the IC50 [6] was 65 nM and the concentration at 0.5 h [7] was 680 nM.
With c1cc2[nH]ncc2cc1-c1cncc(N2CCCNCC2)n1 the Activity [2] was 30%, the IC50 [3] was 105 nM and the MTD [5] was 0.33%. The Activity [14] was 30 µg, the IC50 [6] was 24 nM and the concentration at 0.5 h [9] was 1000 nM.
